Experimental findings from ChEMBL document CHEMBL4406866, “Design, synthesis and evaluation of 5-(4-hydroxyphenyl)-3H-1,2-dithiole-3-thione-Based fibrates as potential hypolipidemic and hepatoprotective agents” (Bioorg Med Chem Lett, 2019) are described below.

Activity calls are given as the source filed them. No cut-off for these calls is given here.

In data set [1] the test system is Rattus norvegicus. In words: Hepatoprotective activity in Met-induced hyperlipidemia rat model assessed as decrease in serum AST level at 9 mg/kg, po administered with compound for last 30 days during feeding of 0.2% Met solution for 60 days. In kind it is functional, organism-based.
Data set [2] deals with Rattus norvegicus. In words: Antioxidant activity in Met-induced hyperlipidemia rat model assessed as increase in serum SOD level at 9 mg/kg, po administered with compound for last 30 days during feeding of 0.2% Met solution for 60 days. It is filed as functional, organism-based.
Data set [3] relates to Rattus norvegicus. In words: Hypolipidemic activity in Met-induced hyperlipidemia rat model assessed as decrease in serum Hcy level at 9 mg/kg, po administered with compound for last 30 days during feeding of 0.2% Met solution for 60 days. It is filed as functional, organism-based.
Data set [4] deals with Rattus norvegicus. Put plainly: Hepatoprotective activity in Met-induced hyperlipidemia rat model assessed as decrease in inflammatory cell infiltration in liver at 9 mg/kg, po administered with compound for last 30 days during feeding of 0.2% Met solution for 60 days by microscopic analysis. In kind it is functional, organism-based.
Data set [5] concerns Rattus norvegicus. In words: Vasorelaxation activity in Met-induced hyperlipidemia rat model assessed as effect on serum ET-1 level at 9 mg/kg, po administered with compound for last 30 days during feeding of 0.2% Met solution for 60 days. It is filed as functional, organism-based.
The nature of data set [6]: Drug metabolism in Met-induced hyperlipidemia rat model assessed as H2S release by measuring increase in serum hydrogen sulfide level at 9 mg/kg, po administered with compound for last 30 days during feeding of 0.2% Met solution for 60 days. As to conditions: in vivo. In kind it is ADME, organism-based.
The species named for data set [7] is Mus musculus. As to conditions: at 13 mg/kg.
Description: Hypolipidemic activity in Triton WR1339-induced hyperlipidemia mouse model assessed as decrease in serum MDA level at 13 mg/kg, ig administered for one week and administered with Triton WR 1339 on day 6 and measured after 24 hrs
In data set [8] the test system is Rattus norvegicus. Put plainly: Hypolipidemic activity in Met-induced hyperlipidemia rat model assessed as decrease in serum TG level at 9 mg/kg, po administered with compound for last 30 days during feeding of 0.2% Met solution for 60 days. In kind it is functional, organism-based.
The species entered for data set [9] is Mus musculus. As to conditions: at 13 mg/kg. This is another data set of the same source.
Description: Hypolipidemic activity in Triton WR1339-induced hyperlipidemia mouse model assessed as decrease in serum TG level at 13 mg/kg, ig administered for one week and administered with Triton WR 1339 on day 6 and measured after 24 hrs
Data set [10] concerns Rattus norvegicus. In words: Hepatoprotective activity in Met-induced hyperlipidemia rat model assessed as decrease in serum ALT level at 9 mg/kg, po administered with compound for last 30 days during feeding of 0.2% Met solution for 60 days. In kind it is functional, organism-based.
Data set [11] has as its system Rattus norvegicus. Put plainly: Hepatoprotective activity in Met-induced hyperlipidemia rat model assessed as improvement in hepatic tissue hemorrhagic symptoms at 9 mg/kg, po administered with compound for last 30 days during feeding of 0.2% Met solution for 60 days by microscopic analysis. It is filed as functional, organism-based.
Data set [12] deals with Rattus norvegicus. Put plainly: Antiinflammatory activity in Met-induced hyperlipidemia rat model assessed as decrease in serum IL-6 level at 9 mg/kg, po administered with compound for last 30 days during feeding of 0.2% Met solution for 60 days by ELISA. It is filed as functional, organism-based.
Data set [13] deals with Rattus norvegicus. Put plainly: Hypolipidemic activity in Met-induced hyperlipidemia rat model assessed as decrease in serum TC level at 9 mg/kg, po administered with compound for last 30 days during feeding of 0.2% Met solution for 60 days. In kind it is functional, organism-based.
Data set [14] is filed under the species Mus musculus. As to conditions: at 13 mg/kg. This is another data set of the same source.
Description: Hypolipidemic activity in Triton WR1339-induced hyperlipidemia mouse model assessed as decrease in serum TC level at 13 mg/kg, ig administered for one week and administered with Triton WR 1339 on day 6 and measured after 24 hrs
For data set [15], the system named is Rattus norvegicus. In words: Antioxidant activity in Met-induced hyperlipidemia rat model assessed as increase in serum T-AOC level at 9 mg/kg, po administered with compound for last 30 days during feeding of 0.2% Met solution for 60 days. It is filed as functional, organism-based.
Data set [16] relates to Rattus norvegicus. In words: Antiinflammatory activity in Met-induced hyperlipidemia rat model assessed as decrease in serum TNF-alpha level at 9 mg/kg, po administered with compound for last 30 days during feeding of 0.2% Met solution for 60 days by ELISA. It is filed as functional, organism-based.
Data set [17] can be described thus: Drug metabolism in po dosed mouse liver assessed as H2S release by measuring hydrogen sulfide level administered for 7 days and measured following 12 hrs fasting on day 7 (reference value: 93.8 +/- 6.1 nmol/g). As to conditions: in vivo. In kind it is ADME, organism-based.
Data set [18] concerns Rattus norvegicus. Put plainly: Hypolipidemic activity in Met-induced hyperlipidemia rat model assessed as decrease in atherosclerosis index at 9 mg/kg, po administered with compound for last 30 days during feeding of 0.2% Met solution for 60 days. It is filed as functional, organism-based.
Data set [19] concerns Rattus norvegicus. Put plainly: Antioxidant activity in Met-induced hyperlipidemia rat model assessed as decrease in serum MDA level at 9 mg/kg, po administered with compound for last 30 days during feeding of 0.2% Met solution for 60 days. In kind it is functional, organism-based.
The nature of data set [20]: Drug metabolism in po dosed mouse plasma assessed as H2S release by measuring hydrogen sulfide level administered for 7 days and measured following 12 hrs fasting on day 7 (reference value: 52.9 +/- 5.4 umol/L). It is filed as ADME, organism-based. As to conditions: in vivo.
The test system of data set [21] is Rattus norvegicus. Put plainly: Upregulation of PPAR-alpha protein expression in liver of Met-induced hyperlipidemia rat model at 9 mg/kg, po administered with compound for last 30 days during feeding of 0.2% Met solution for 60 days. In kind it is functional, organism-based.
Data set [22] deals with Rattus norvegicus. In words: Hepatoprotective activity in Met-induced hyperlipidemia rat model assessed as decrease in red lipid droplets in hepatocytes at 9 mg/kg, po administered with compound for last 30 days during feeding of 0.2% Met solution for 60 days by oil red O-staining based microscopic analysis. In kind it is functional, organism-based.
In data set [23] the test system is Rattus norvegicus. Put plainly: Hypolipidemic activity in Met-induced hyperlipidemia rat model assessed as increase in serum hydrogen sulfide level at 9 mg/kg, po administered with compound for last 30 days during feeding of 0.2% Met solution for 60 days. In kind it is functional, organism-based.

As to `COC(=O)C(C)(C)Oc1ccc(-c2cc(=S)ss2)cc1`, the outcome with Rattus norvegicus [1], with Rattus norvegicus [2], in the data set on Rattus norvegicus [4], in the data set with Rattus norvegicus [10], with Rattus norvegicus [11] and with Rattus norvegicus [15] was Active. The result in the data set with Rattus norvegicus [21] and with Rattus norvegicus [22] was Active. Besides, the inhibition result in the data set on Rattus norvegicus [3], in the data set listed under Mus musculus [7], with Rattus norvegicus [8], in the data set filed under Mus musculus [9], in the data set on Rattus norvegicus [12] and with Rattus norvegicus [13] was “Active” in each case. Moreover, the inhibition entry in the data set listed under Mus musculus [14], in the data set with Rattus norvegicus [16], in the data set on Rattus norvegicus [18] and in the data set with Rattus norvegicus [19] was “Active” each time. Further, the result in the data set with Rattus norvegicus [5] was inactive. For the same compound, the values for the Drug metabolism result in data set [6], in data set [17] and in [20] were “Metabolite_Detected”, 165.6 nmol/g and 113.4 µmol/L, respectively.
As to `COC(=O)CCCCCOc1ccc(-c2cc(=S)ss2)cc1`, the inhibition result in the data set filed under Mus musculus [9] was “Active”. For the same compound, the values for the Drug metabolism in data set [17] and in [20] were 132.1 nmol/g and 93.7 µmol/L, respectively.
In the case of `COC(=O)CCCCOc1ccc(-c2cc(=S)ss2)cc1`, the inhibition result in the data set listed under Mus musculus [9] and in the data set filed under Mus musculus [14] was “Active” throughout. The Drug metabolism came out at 155.5 nmol/g in data set [17] and 86.5 µmol/L in data set [20].
Regarding `CC(C)OC(=O)C(C)(C)Oc1ccc(C(=O)c2ccc(Cl)cc2)cc1`, the result in the data set with Rattus norvegicus [1], with Rattus norvegicus [23], in the data set on Rattus norvegicus [21] and in the data set on Rattus norvegicus [22] was Active. For the same compound, in the data set with Rattus norvegicus [10], the outcome was inactive.
For `COc1ccc(-c2cc(=S)ss2)cc1` [ANETHOLTRITHION], in the data set filed under Mus musculus [7], the inhibition result was “Active”. In addition, the inhibition result in the data set listed under Mus musculus [9] and in the data set listed under Mus musculus [14] was “inactive” in each case. In addition, the Drug metabolism in data set [17] was 181.3 nmol/g; in [20], 184.6 µmol/L.
As for `CCC(Oc1ccc(-c2cc(=S)ss2)cc1)C(=O)OC` (stereo unspecified), the inhibition entry in the data set filed under Mus musculus [7] and in the data set filed under Mus musculus [9] was “Active” each time. Also, the Drug metabolism in data set [17] was 159.5 nmol/g; in [20], 128.8 µmol/L.
For `COC(=O)C(C)Oc1ccc(-c2cc(=S)ss2)cc1` (stereo unspecified), the inhibition result in the data set listed under Mus musculus [9] is “Active”. Moreover, the Drug metabolism amounted to 164.8 nmol/g in data set [17] and 119.3 µmol/L in data set [20].
`COC(=O)CCCOc1ccc(-c2cc(=S)ss2)cc1`: the inhibition entry in the data set listed under Mus musculus [7], in the data set listed under Mus musculus [9] and in the data set filed under Mus musculus [14] was “Active” in each case. For the same compound, the Drug metabolism was 130.5 nmol/g in [17] and 95.5 µmol/L in [20].
